Test results from US4605649A, “Method of treatment of estrogen deficiency disease” (priority 1984, dated 1986).
Like-named read-outs stand apart in the source and are kept apart here.

Key:
[1] = test system: testes of male Syrian hamsters; assay: Testes weight of male hamsters after s.c. estrogen implant (estrogenicity); type: in vivo; details: for Range Of Testes Weight Of Male Hamsters: 25 mg s.c. pellet (90% estrogen), second pellet at 106 days, four animals per group
Method: In a second method, the weights of both testes of those male Syrian hamsters which were used in the in vivo carcinogenicity assay, were measured on the 224th day after s.c. implantation of 25 mg. pellets of estrogen. The weights were measured in grams (expressed as percent of total body weight).
(§1) Male Syrian hamsters, 3-4 weeks of age (Harlan/Sprague Dawley, Madison, Wis.), were given a 25 mg. s.c. implant consisting of 10% cholesterol and 90% estrogen. A second 25 mg. pellet of the same composition was implanted 106 days after the initial estrogen treatment. Estrogen treatment was carried out according to the procedure of Kirkman--National Cancer Institute Monograph, 2, 1-57 (1959). Control animals were left untreated. Two hundred twenty-four days after treatment with estrogens had begun, hamsters were weighed, killed, both testes were excised and their weights measured in grams. Data presented in Table 1 are the ranges of testes weights from four animals in each group. Weights are expressed as percentages of total body weights.

[2] = test system: renal clear cell carcinoma; assay: In vivo carcinogenicity: renal clear-cell carcinoma in male Syrian hamsters
Method: as §1
The carcinogenicity of the modified estrogens was measured in male Syrian hamsters in vivo. Estrogen, and estrogen alone, causes renal clear cell carcinoma in 100% of the male animal population when exposed to s.c. estrogen implants. This kidney tumor is estrogen-induced and estrogen-dependent for development and growth. Failure to resupply estrogen every three months or surgical removal of implants results in tumor regression within a few weeks. […] The spontaneous kidney tumor incidence in Syrian hamsters without estrogen treatment is very low. The above facts are fully discussed in Kirkman, Nat'l. Can. Inst. Monograph, 1, 1 (1959); McGregor et al., J. Nat'l. Can. Inst., 24, 1057 (1960) and Sirbasku et al., Endocrin., 98, 1260 (1976).
The protocol employed was that set out for determining estrogen activity in male hamsters according to Table 1 (in that the animals examined for tumors at 224 days were the source of the testes). In the carcinogenicity experiment, further groups of animals were examined at 279 and 345 days. The animals were decapitated, the kidneys were excised and inspected visually for the occurrence of renal celear-cell carcinoma. Sections were prepared of all kidneys and studied histologically. In the table, column 1 gives the name of the compound, column 2 the total number of animals, column 3, the number of dead or lost animals and columns 4, 5 and 6 results of histologic examination of animals at the specified time interval for renal clear-cell carcinoma.

estrogen receptor [3] = details: relative to estradiol = 100; Heiman et al., J. Med. Chem., 23, 994 (1980); cited from earlier work
estrogen receptor [4] = details: cytosol of hypothalamus-preoptic area, pituitary, uterus; Pfeiffer et al. (1982); cited from earlier work
[5] = test system: catechol estrogen formation; details: cited from earlier work
estrogenic activity = details: catechol metabolites; cited from earlier work
protein or peptides = details: cited from earlier work
DNA = details: cited from earlier work
[6] = test system: tumors in experimental animals; details: prolonged treatment; testes, endometrium, ovary, cervix, mammary and other tissues; cited from earlier work
[7] = 224 days after s.c. implantation of estrogen
[8] = 279 days after s.c. implantation of estrogen
[9] = 345 days after s.c. implantation of estrogen

| SMILES | Range Of Testes Weight Of Male Hamsters ([1]; 224 days) | No. of Animals with Tumors/No. of Animals Examined [2, 7] | No. of Animals with Tumors/No. of Animals Examined [2, 8] | No. of Animals with Tumors/No. of Animals Examined [2, 9] | estrogenic activity (estrogenic activity) | tumor induction [6] | other results |
| --- | --- | --- | --- | --- | --- | --- | --- |
| C[C@]12CC[C@@H]3c4cc(F)c(O)cc4CC[C@H]3[C@@H]1CC[C@@H]2O [2-fluoro-β-estradiol, 2-fluoro-3,17β-estradiol] | 0.18-0.25 % Of Total Body Weight | 0/4 | 0/4 | 0/3 | – | – | estrogenicity (conclusion) ([1]; in words, hamster model): highly estrogenic; potential for induced renal clear cell carcinomas ([2]; in words, compared with estradiol or 4-fluoro-β-estradiol at equal estrogen dosages): greatly decreased potential; carcinogenicity (conclusion) ([2]; in words, particular animal model): non-carcinogenic; estrogen receptor binding affinity, ratio of association constants (Ka compound/Ka estradiol)×100 (estrogen receptor [3]): 86; estrogen receptor affinity (estrogen receptor [4]): high receptor affinity; catechol estrogen formation [5]: reduced catechol estrogen formation |
| C[C@]12CC[C@@H]3c4cc(O)c(O)cc4CC[C@H]3[C@@H]1CC[C@@H]2O [2-hydroxyestradiol] | – | – | – | – | almost devoid of estrogenic activity | – | covalent binding to protein or peptides (protein or peptides; in vitro): bind covalently; covalent binding to DNA (DNA; in vitro): bind covalently |
| C[C@]12CC[C@@H]3c4cc(O)c(O)cc4CC[C@H]3[C@@H]1CCC2=O [2-hydroxyestrone] | – | – | – | – | almost devoid of estrogenic activity | – | covalent binding to protein or peptides (protein or peptides): bind covalently; covalent binding to DNA (DNA): bind covalently |
| C[C@]12CC[C@@H]3c4ccc(O)c(F)c4CC[C@H]3[C@@H]1CC[C@@H]2O [4-fluoro-β-estradiol] | 0.18-0.28 % Of Total Body Weight | 1/4 | 3/6 | 0/3 | – | – | animals judged histologically to be preneoplastic ([2]; 224 days): 2 of 4; estrogen receptor binding affinity, ratio of association constants (Ka compound/Ka estradiol)×100 (estrogen receptor [3]): 128; estrogen receptor affinity (estrogen receptor [4]): high receptor affinity; catechol estrogen formation ([5]; Krey et al. (1983)): reduced catechol estrogen formation |
| C[C@]12CC[C@@H]3c4ccc(O)c(O)c4CC[C@H]3[C@@H]1CC[C@@H]2O [4-hydroxyestradiol] | – | – | – | – | almost devoid of estrogenic activity | – | covalent binding to protein or peptides (protein or peptides; in vitro): bind covalently; covalent binding to DNA (DNA; in vitro): bind covalently |
| C[C@]12CC[C@@H]3c4ccc(O)c(O)c4CC[C@H]3[C@@H]1CCC2=O [4-hydroxyestrone] | – | – | – | – | almost devoid of estrogenic activity | – | covalent binding to protein or peptides (protein or peptides): bind covalently; covalent binding to DNA (DNA): bind covalently |
| CC/C(=C(/CC)c1ccc(O)cc1)c1ccc(O)cc1 [DES, diethylstilbestrol] | – | – | – | – | – | increase the number of tumors | – |
| C[C@]12CC[C@@H]3c4ccc(O)cc4CC[C@H]3[C@@H]1CC[C@@H]2O [estradiol] | 0.12-0.26 % Of Total Body Weight | 4/4 | 5/5 | 0/4 | – | induce tumors | testes weight relative to untreated hamsters ([1]; 224 days, shrinking to % of the weights of testes in untreated hamsters): approximately 10% |
| C[C@]12CC[C@@H]3c4ccc(O)cc4CC[C@H]3[C@@H]1C[C@@H](O)[C@@H]2O [estriol] | – | – | – | – | – | induce tumors | – |
| C[C@]12CC[C@@H]3c4ccc(O)cc4CC[C@H]3[C@@H]1CCC2=O [estrone] | – | – | – | – | – | induce tumors | – |
